Tests used:
α5β1 = target: T1, α5β1 (Homo sapiens, UniProt P05556+P08648); assay: biochemical; conditions: read-out: inhibition of binding
T1 construct: incubating a small molecule RGD-mimetic-tritiated radioligand with soluble integrin protein

α8β1 = target: T2, α8β1 (Homo sapiens, UniProt P05556+P53708); assay: biochemical; conditions: read-out: inhibition of binding
T2 construct: incubating a small molecule RGD-mimetic-tritiated radioligand with soluble integrin protein
T2 sequence (P53708 39-1012 limits assumed): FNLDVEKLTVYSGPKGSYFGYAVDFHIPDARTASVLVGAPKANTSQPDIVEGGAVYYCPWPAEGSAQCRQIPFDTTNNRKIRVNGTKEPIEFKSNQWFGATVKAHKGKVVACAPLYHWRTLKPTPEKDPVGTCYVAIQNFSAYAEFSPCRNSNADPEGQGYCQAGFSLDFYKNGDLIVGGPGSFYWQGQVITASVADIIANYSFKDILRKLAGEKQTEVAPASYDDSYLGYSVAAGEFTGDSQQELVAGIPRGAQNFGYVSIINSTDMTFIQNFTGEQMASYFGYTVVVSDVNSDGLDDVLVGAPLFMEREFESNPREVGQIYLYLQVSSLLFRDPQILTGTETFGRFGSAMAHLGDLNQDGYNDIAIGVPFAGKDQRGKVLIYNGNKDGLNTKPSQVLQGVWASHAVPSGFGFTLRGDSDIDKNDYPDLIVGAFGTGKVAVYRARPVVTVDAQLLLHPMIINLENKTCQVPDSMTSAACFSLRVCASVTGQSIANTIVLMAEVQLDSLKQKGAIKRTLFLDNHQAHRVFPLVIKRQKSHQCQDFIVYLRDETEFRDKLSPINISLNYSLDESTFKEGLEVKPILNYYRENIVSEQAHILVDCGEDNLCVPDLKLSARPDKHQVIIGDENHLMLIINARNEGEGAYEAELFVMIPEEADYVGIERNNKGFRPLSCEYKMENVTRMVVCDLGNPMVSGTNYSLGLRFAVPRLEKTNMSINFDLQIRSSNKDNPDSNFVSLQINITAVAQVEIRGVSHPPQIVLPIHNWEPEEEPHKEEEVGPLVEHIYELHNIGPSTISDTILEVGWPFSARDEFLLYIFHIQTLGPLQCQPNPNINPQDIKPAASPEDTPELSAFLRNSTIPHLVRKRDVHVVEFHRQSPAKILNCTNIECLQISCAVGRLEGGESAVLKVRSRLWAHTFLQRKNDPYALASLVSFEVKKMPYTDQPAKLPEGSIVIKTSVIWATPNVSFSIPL
T2 sequence (P05556 21-728 limits assumed): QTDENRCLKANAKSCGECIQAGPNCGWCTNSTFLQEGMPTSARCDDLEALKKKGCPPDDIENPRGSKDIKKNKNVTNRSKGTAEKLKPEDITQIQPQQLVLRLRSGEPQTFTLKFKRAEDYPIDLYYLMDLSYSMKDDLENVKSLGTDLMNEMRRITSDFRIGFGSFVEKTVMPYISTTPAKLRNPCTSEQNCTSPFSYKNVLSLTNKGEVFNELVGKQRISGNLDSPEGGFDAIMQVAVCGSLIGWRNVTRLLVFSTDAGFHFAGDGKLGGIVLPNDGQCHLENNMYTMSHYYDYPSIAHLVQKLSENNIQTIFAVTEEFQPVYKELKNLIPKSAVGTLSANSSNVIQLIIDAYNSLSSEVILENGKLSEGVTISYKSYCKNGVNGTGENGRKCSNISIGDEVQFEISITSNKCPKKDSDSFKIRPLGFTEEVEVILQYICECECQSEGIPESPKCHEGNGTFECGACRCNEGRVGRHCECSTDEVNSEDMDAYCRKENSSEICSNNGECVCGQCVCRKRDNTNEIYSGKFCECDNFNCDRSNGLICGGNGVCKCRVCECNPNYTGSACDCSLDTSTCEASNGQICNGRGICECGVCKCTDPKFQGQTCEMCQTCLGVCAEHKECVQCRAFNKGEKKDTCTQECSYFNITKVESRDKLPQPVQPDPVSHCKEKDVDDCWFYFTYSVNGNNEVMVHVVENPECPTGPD

T1 sequence (P08648 42-995 limits assumed): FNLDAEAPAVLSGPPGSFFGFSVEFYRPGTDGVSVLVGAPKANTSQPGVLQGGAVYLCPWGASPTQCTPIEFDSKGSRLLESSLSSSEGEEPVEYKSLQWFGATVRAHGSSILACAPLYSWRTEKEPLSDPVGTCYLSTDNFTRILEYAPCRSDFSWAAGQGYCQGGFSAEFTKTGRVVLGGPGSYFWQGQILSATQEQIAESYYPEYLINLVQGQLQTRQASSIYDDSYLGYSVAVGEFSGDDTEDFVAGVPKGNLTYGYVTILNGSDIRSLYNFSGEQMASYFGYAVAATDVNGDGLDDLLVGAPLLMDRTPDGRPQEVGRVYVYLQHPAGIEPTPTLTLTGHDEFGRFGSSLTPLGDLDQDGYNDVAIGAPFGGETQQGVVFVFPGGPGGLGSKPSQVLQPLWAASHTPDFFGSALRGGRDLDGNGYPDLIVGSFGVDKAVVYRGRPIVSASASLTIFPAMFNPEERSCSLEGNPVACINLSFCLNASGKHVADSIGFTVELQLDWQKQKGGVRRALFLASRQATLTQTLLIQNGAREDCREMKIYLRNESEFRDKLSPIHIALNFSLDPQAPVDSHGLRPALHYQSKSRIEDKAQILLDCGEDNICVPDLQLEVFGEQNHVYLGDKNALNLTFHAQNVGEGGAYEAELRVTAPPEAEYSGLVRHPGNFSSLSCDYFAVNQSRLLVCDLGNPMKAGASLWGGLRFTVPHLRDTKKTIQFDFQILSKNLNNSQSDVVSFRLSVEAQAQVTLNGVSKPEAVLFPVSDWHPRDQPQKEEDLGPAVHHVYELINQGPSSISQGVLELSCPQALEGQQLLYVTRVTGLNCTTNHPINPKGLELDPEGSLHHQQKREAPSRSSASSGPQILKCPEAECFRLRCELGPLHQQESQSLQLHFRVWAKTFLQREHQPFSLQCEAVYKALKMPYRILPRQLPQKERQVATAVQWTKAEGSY
T1 sequence (P05556 21-728 limits assumed): as the sequence (P05556 21-728 limits assumed) above

Q: Which inhibition at 1 µM (α5β1) does the source give for `CC(C)C[C@H](NC(=O)[C@H](CC(=O)O)NC(=O)CNC(=O)[C@H](CCCNC(=N)N)NC(=O)[C@H](CC(C)C)NC(=O)[C@H](CC(N)=O)NC(=O)[C@@H]1CCCN1C(=O)[C@@H](NC(=O)[C@H](C)NC(=O)[C@@H](N)CC(N)=O)C(C)C)C(=O)N[C@@H](CCC(N)=O)C(=O)N[C@H](C(=O)N[C@@H](CC(C)C)C(=O)N[C@@H](C)C(=O)N[C@@H](CCC(N)=O)C(=O)N[C@@H](CCCCN)C(=O)N[C@H](C(=O)N[C@@H](C)C(=O)N[C@@H](CCCNC(=N)N)C(=O)N[C@H](C(N)=O)[C@@H](C)O)C(C)C)C(C)C` [A20FMDV2] here?
A: The inhibition at 1 µM was under 50%.

Q: What about the inhibition at 1 µM (α8β1) of the same molecule?
A: The inhibition at 1 µM was under 50%.
